Test: Human HepG2 cell viability assay in 384 well format
Format: toxicity, cell-based
Set-up: dose 125 nL, time 70.5 hour; cytotoxicity at 70.5 h: concentration not given beside the values
Conditions: HepG2 cells, read-out: Inhibition

Structure (SMILES) | cytotoxicity at 70.5 h [%]
Cc1nc(NCC(O)CN2CCCCCC2)c2c(C)noc2n1 (stereo unspecified) | -5.74
O=C(CCn1cc(Cl)cn1)N1CCCC(O)(CO)CC1 (stereo unspecified) | -4.26
Cc1cnc(C(=O)N2CCNCC2C(=O)NCc2ccncc2)cn1 (stereo unspecified) | 3.98
Cc1ccccc1OCCC(=O)N1CCc2nc(C)n(C)c(=O)c2CC1 | -8.53
COc1ccc(Cc2ncc3c(n2)CN(C(=O)CN(C)C)C3)cc1 | -8
Cc1cccc(C(C)C)c1NC(=O)CN(C)C(C)c1nccs1 (stereo unspecified) | -9.73
CN(C)C(=O)Cc1ccc(-c2cccc3c2CCNC3)cc1 | -21.8
CCCNc1ncc(CN2CCOC(Cc3cccc(F)c3)C2)cn1 (stereo unspecified) | -10.7
NC(=O)CN1CC2(CCC1=O)CCN(Cc1cc(F)cc(F)c1)CC2 | -0.945
CCN(Cc1cccc(C(=O)Nc2ncc(C)s2)c1)[C@H]1COC[C@@H]1O | -3.78
CCCn1ncc(C2CC(=O)NCc3nc4cc(C)ccn4c32)c1C (stereo unspecified) | 2.43
CCc1nn(C)c(Cl)c1CN1CCCC2(C1)CN(C)C(=O)O2 (stereo unspecified) | -11.8
O=C(COc1cccc(F)c1)N1C[C@H](CO)C[C@H](CN2CCCC2)C1 | 6.4
Cc1cc(C)n(CCCN(C)C(=O)CN2CC3(CCNCC3)OC2=O)n1 | -8.19
Cc1ccsc1CN(Cc1ccccn1)CC(O)CO (stereo unspecified) | -1.67
COc1cnc(N2CCC(c3ncc[nH]3)CC2)nc1 | 17.8
O=C(Nc1ccccc1)N1CCC(N2Cc3ncccc3C2=O)CC1 | -8.29
CCc1ccccc1C(=O)N1C[C@@H](CN2CCOCC2)[C@@H](CO)C1 | 27.9
Cn1ncc(N2CCC(CNC3CC(C)(C)CC(C)(C)C3)C2)cc1=O (stereo unspecified) | 7.5
CN(CCCc1cnn(C)c1)Cc1cc2n(n1)CCCNC2 | -14.1
CC(C)C1CN(Cc2c[nH]cn2)CCCN1CC1CC1 (stereo unspecified) | -17.8

Structure (SMILES) | cytotoxicity at 70.5 h [%]
OCC(O)CN(CCN1CCOCC1)Cc1ccco1 (stereo unspecified) | -8.67
Cc1nnc(N2CCN(C)C3(CCC(=O)N(CCO)CC3)C2)s1 (stereo unspecified) | 22.1
Fc1ccccc1CN1CCCC2(CCN(c3ncccn3)C2)C1 (stereo unspecified) | -9.02
OCC1COCCN(Cc2cc(C3CCCCC3)no2)C1 (stereo unspecified) | -9.08
Cc1ccc2nc(C(=O)N3CC(n4nc(C)cc4C)C3)cn2c1 | -9.46
Cc1nc(N2CCC(O)(c3ccccc3)CC2)c2c(C)nn(C)c2n1 | -3.33
CC(C)NC1CCCc2nc(-c3ccccc3)ncc21 (stereo unspecified) | -14.3
O=C1NCCN(CC2CCCCC2)C1CC(=O)N1CCc2n[nH]cc2C1 (stereo unspecified) | -1.96
COc1ccc(C(=O)N2C[C@@H](O)[C@H](NCc3cnc(C)cn3)C2)cc1 | 22.1
CCn1c(C)nnc1SCCNC(=O)c1cnc(N(C)C)nc1C | -2.09
COc1cccc(CCC2CCCN(C(=O)c3ccc(OC)o3)C2)c1 (stereo unspecified) | -3.25
COc1ccccc1OC1(C(=O)O)CCN(c2nc(C)cnc2C)CC1 | -6.64
CN(Cc1cc(C2CC2)[nH]n1)C(=O)c1ccccc1C1CCNC1 (stereo unspecified) | -3.91
NCC1Cc2cc(-c3cnccn3)cc(Cl)c2O1 (stereo unspecified) | 0.342
CCCN1CCCC2(CCN(S(=O)(=O)c3cc(C)nn3CC)C2)C1=O (stereo unspecified) | -21.6
COCC1CCN(C(=O)c2cn(Cc3ccccc3F)nn2)CC1 | 5.43
CCCN1CCCn2nc(CNC(=O)CC3CCS(=O)(=O)C3)cc2C1 (stereo unspecified) | -3.24
Cc1cc2nc(-c3ccccc3)cc(NCC3CCCOC3)n2n1 (stereo unspecified) | 0.476
CN(C)C(=O)NCC(=O)N(C)Cc1cc(-c2ccccc2)no1 | 22
CCC(C)CN1CCC(n2cc(C3CCCC3)nn2)CC1 (stereo unspecified) | 0.72
CCc1cc(N[C@H]2CC[C@@H](N)CC2)n2nc(C)c(C)c2n1 | -7.71

Structure (SMILES) | cytotoxicity at 70.5 h [%]
COc1cccc(Cn2cc(C3=CCN(CC(=O)N(C)C)CC3)cn2)c1 | -16.4
CC(C)(C)c1ccc(-c2n[nH]c3c2CN(CC2CCOC2)CC3)cc1 (stereo unspecified) | -12
Cc1cc(CN2CCC(CNC(=O)CN3CCCCCC3)C2)[nH]n1 (stereo unspecified) | 14.2
CCCNC(=O)c1ccc(S(=O)(=O)NC2(COC)CCCC2)cc1 | -5.28
Cn1ccc2c(-c3cc(N4CCOCC4)ncn3)ccnc21 | -6.11
CN(C)C(=O)CN1C(=O)[C@H]2CC[C@@H]1CN(Cc1ccccc1C#N)C2 | -4.2
COCCN1CCC(CN(CC2CCCO2)C(=O)CNC(C)=O)CC1 (stereo unspecified) | -1.99
CCCN(Cc1nc2ccccc2[nH]1)Cc1ccccc1OC | -4
CCC[C@@H]1CN(C(=O)CCc2ccco2)C[C@H]1NS(C)(=O)=O | 29
CC(C)=CCn1ncc(N2CCCCC2)cc1=O | -3.13
Nc1nc2c(c(N3CCCC(c4nnc5ccccn45)C3)n1)CCNC2 (stereo unspecified) | -2.11
CCc1oc(C(=O)N(C)Cc2nonc2C)cc1CN(CC)CC | -16.6
CCN1CC(C(=O)N2CCN(c3nsc4ccccc34)CC2)CCC1=O (stereo unspecified) | 19.6
COc1cccc(C(C(=O)O)N2CCSCC2)c1F (stereo unspecified) | 13
Cc1nc(N2CCC(C(O)c3nccn3C)CC2)c2c(C)noc2n1 (stereo unspecified) | 20.2
Cc1c(-c2cnn(C)c2)nc(N)c(C#N)c1-c1ccc(CO)o1 | 2.44
CC1(C)CNC(=O)c2nc(CCCN3CCCC3)[nH]c2C1 | -8.44
CC(C)[C@H]1CN(c2ccnc(N)n2)C[C@@H]1NC(=O)C1(C#N)CCOCC1 | -9.5
CC(C)c1nnsc1CNC(=O)C1CCCN(C(=O)N(C)C)C1 (stereo unspecified) | -11.2
CN(Cc1noc2c1CCCC2)C(=O)C1CCOc2ccccc2C1 (stereo unspecified) | -3.46
CCc1cc(N(C)Cc2noc(C(C)C)n2)nc(N2CCOCC2)n1 | -13.5

Structure (SMILES) | cytotoxicity at 70.5 h [%]
CCCC1(CO)CCCN(C(=O)CN2CCN(CC)CC2)C1 (stereo unspecified) | -24.3
CSCCC(=O)N[C@H]1CC[C@H](Nc2nccc(-c3ccncc3)n2)C1 | 23.8
CCc1csc(CNc2nc3c(s2)c(C)nn3C)n1 | 10.5
Cc1cc(N2CCC(O)(C(=O)O)CC2)nc2ccccc12 | -11
CCC(CO)N(Cc1cccs1)C(=O)CSC (stereo unspecified) | 11.9
Cc1nccc(N[C@H]2CN(C(=O)CN3CCCC3=O)C[C@@H]2C(C)C)n1 | -19.5
CCCn1ncc(CN2CCCC(C(=O)c3ccc(SC)cc3)C2)c1C (stereo unspecified) | -9.31
CN(Cc1ccno1)C(=O)c1cccc(CC2CCNCC2)c1 | 6.56
CCN1CCCC1CNC(=O)c1cc(COc2ccccc2F)[nH]n1 (stereo unspecified) | -4.57
Cc1cc(C)c2c(N3CCC(C(=O)N4CCCC4)CC3)ncnc2n1 | -7.41
CC(C)N1CC2(CCCN(Cc3noc(C4CCCC4)n3)C2)CCC1=O (stereo unspecified) | 3.06
CCc1cc(C(=O)N2CCC3(CCCN(CCOC)C3=O)C2)cs1 (stereo unspecified) | -9.21
CCN1CC2(CCC1=O)CCN(Cc1nncn1C(C)C)CC2 | -5.12
CCCOCC(=O)N1CCc2c(cccc2S(=O)(=O)N2CCOCC2)C1 | 19.4
Cc1nccc(-c2ccccc2)c1C(=O)N1CCC2(CN(C)C(=O)O2)C1 (stereo unspecified) | -5.07
CCc1ncc(C(=O)N2CC(Oc3ccccc3Cl)C2)cn1 | 10.7
O=C(Cc1ccncc1)N1C[C@H]2CC[C@@H]1CN(Cc1cccnc1)C2 | 8.28
CCC(C(=O)NCc1nc(C)cc(C(F)(F)F)n1)n1cccn1 (stereo unspecified) | -11.3

Reference: ChEMBL document CHEMBL3507680, “University of Dundee, Gates Library screen for HepG2 cell viability”
